Measurements taken from US20130150363A1, “Method of Treating Cancer Using a cMET and AXL Inhibitor and an ErbB Inhibitor” (GlaxoSmithKline, priority 2008, published 2013).

Assays:
Format in all cases: cell-based
[1] = tested on: NCI-H2170 lung carcinoma cells; experiment: Cell growth inhibition (CellTiter-Glo), NCI-H2170; details: Homo sapiens, NCI-H2170, 72 h, 3 days
Source text: (§1) Esophageal carcinoma cell line OE33 was purchased from ECACC European Collection of Cell Cultures (UK). Breast cancer cell line JIMT-1 and gastric carcinoma cell line MKN-45 were purchased from Deutsche Sammlung von Mikroorganismen and Zellkulturen GmbH (Germany); KPL-4, a human breast cancer cell line was kindly provided by Prof. J Kurebayashi (Kawasaki Medical School, Kurashiki, Japan). […] The LICR-LON-HN5 head and neck carcinoma cell line (HN5) was a gift from the Institute of Cancer Research, Surrey, U.K. HN5C12 was developed by single-cell cloning of HN5 followed by exposure to increasing concentrations of lapatinib. […] Cell growth inhibition was determined via CellTiter-Glo cell viability assays. […] BT474-J4 and HN5C12 were washed with PBS and plated in their culture media without lapatinib. […] ATP levels were determined by adding Cell Titer Glo0 (Promega), incubating for 20 minutes then the luminescent signal was read on the SpectraMax M5 plate with a 0.5 second integration time. Cell growth was calculated relative to vehicle (DMSO) treated control wells. […] y=([…]) where A is the minimum response (ymin), B is the maximum response (ymax), c is the inflection point of the curve (EC50), d is the Hill coefficient, and x is the log10 compound concentration (moles/L). CI values were calculated with the interpolated IC50 values and the mutually non-exclusive equation derived by Chou and […](a)+Db/IC50(b)+(Da×Db)/(IC50(a)×IC50(b)) where IC50(a) is the IC50 of the inhibitor A; IC50(b) is the IC50 for the inhibitor B; […] Excess Over Highest Single Agent (EOHSA) is defined as a statistically significant improvement in the combination compared to the component monotherapies. […] See Borisy et al. (2003) or Hung et al. (1993) for examples and discussion. Analysis was conducted using two-factor analysis of variance with interaction (model terms were dose of drug A, dose of drug B, and interaction between doses of drug A and B), followed by linear contrasts between each combination group and corresponding monotherapies. Analysis was conducted using SAS (version 9, provided by SAS Institute, Cary, N.C.). EOHSA at each dose was calculated as the minimum difference in average % inhibition between the combination and each monotherapy, from the appropriate ANOVA contrast. Since there are many comparisons for the % inhibition endpoint, p-value adjustment for multiple comparisons was performed. Hommel's procedure was implemented in order to improve the power while retaining […] Error Rate (FWE) control by using a sequentially rejective method. The p-values for both synergy and antagonism were calculated using this adjustment.

[2] = tested on: NCI-H69 lung carcinoma cells; experiment: Cell growth inhibition (CellTiter-Glo), NCI-H69; details: Homo sapiens, NCI-H69, 72 h, 3 days
Source text: as §1

[3] = tested on: KPL-4 breast cancer cells; experiment: Cell growth inhibition (CellTiter-Glo), KPL-4; details: Homo sapiens, KPL4, 72 h, 3 days
Source text: as §1

[4] = tested on: ovary_SKOV3 tumor cells; experiment: Cell growth inhibition (CellTiter-Glo), SKOV3; details: Homo sapiens, SK-OV-3, 72 h, 3 days
Method: Cell growth inhibition was determined via CellTiter-Glo cell viability assays. […] BT474-J4 and HN5C12 were washed with PBS and plated in their culture media without lapatinib. […] ATP levels were determined by adding Cell Titer Glo0 (Promega), incubating for 20 minutes then the luminescent signal was read on the SpectraMax M5 plate with a 0.5 second integration time. Cell growth was calculated relative to vehicle (DMSO) treated control wells. […] y=([…]) where A is the minimum response (ymin), B is the maximum response (ymax), c is the inflection point of the curve (EC50), d is the Hill coefficient, and x is the log10 compound concentration (moles/L). CI values were calculated with the interpolated IC50 values and the mutually non-exclusive equation derived by Chou and […](a)+Db/IC50(b)+(Da×Db)/(IC50(a)×IC50(b)) where IC50(a) is the IC50 of the inhibitor A; IC50(b) is the IC50 for the inhibitor B; […] Excess Over Highest Single Agent (EOHSA) is defined as a statistically significant improvement in the combination compared to the component monotherapies. […] In statistical terms, the maximum of the p-value's for the two comparisons Aq+Br vs Aq and Aq+Br vs Br should be less than or equal to an appropriate cutoff, p≦0.05. EOHSA is a common approach for evaluating drug combinations, and is an FDA criterion (21 CRF 300.50) for combination drug approval. See Borisy et al. (2003) or Hung et al. (1993) for examples and discussion. Analysis was conducted using two-factor analysis of variance with interaction (model terms were dose of drug A, dose of drug B, and interaction between doses of drug A and B), followed by linear contrasts between each combination group and corresponding monotherapies. Analysis was conducted using SAS (version 9, provided by SAS Institute, Cary, N.C.). EOHSA at each dose was calculated as the minimum difference in average % inhibition between the combination and each monotherapy, from the appropriate ANOVA contrast. Since there are many comparisons for the % inhibition endpoint, p-value adjustment for multiple comparisons was performed. Hommel's procedure was implemented in order to improve the power while retaining […] Error Rate (FWE) control by using a sequentially rejective method. The p-values for both synergy and antagonism were calculated using this adjustment.

SMILES: C#Cc1cccc(Nc2ncnc3cc(OCCOC)c(OCCOC)cc23)c1 [Erlotinib, N-(3-ethynylphenyl)-6,7-bis{[2-(methyloxy)ethyl]oxy}-4-quinazolinamine]
- IC50 ([1]; lung_H2170, +HGF (2 ng/mL)): 7.74 µM
- IC50 ([1]; lung_H2170, −HGF): 1.28 µM
- IC50 ([2]; lung_H69, +HGF (2 ng/mL)): > 10 µM
- IC50 ([2]; lung_H69, −HGF): > 10 µM
- IC50 ([3]; breast_KPL4, +HGF (2 ng/mL)): > 10 µM
- IC50 ([3]; breast_KPL4, −HGF): > 10 µM
- IC50 ([4]; ovary_SKOV3, +HGF (2 ng/mL)): 5.39 µM
- IC50 ([4]; ovary_SKOV3, −HGF): 5.62 µM

SMILES: CS(=O)(=O)CCNCc1ccc(-c2ccc3ncnc(Nc4ccc(OCc5cccc(F)c5)c(Cl)c4)c3c2)o1 [Lapatinib, N-(3-chloro-4-{[(3-fluorophenyl)methyl]oxy}phenyl)-6-[5-({[2-(methylsulfonyl)ethyl]amino}methyl)-2-furanyl]-4-quinazolinamine]
- IC50 ([1]; lung_H2170, +HGF (2 ng/mL)): 4.24 µM
- IC50 ([1]; lung_H2170, −HGF): 0.26 µM
- IC50 ([2]; lung_H69, +HGF (2 ng/mL)): 4.74 µM
- IC50 ([2]; lung_H69, −HGF): 5.36 µM
- IC50 ([3]; breast_KPL4, +HGF (2 ng/mL)): 0.89 µM
- IC50 ([3]; breast_KPL4, −HGF): 1 µM
- IC50 ([4]; ovary_SKOV3, +HGF (2 ng/mL)): 5.67 µM
- IC50 ([4]; ovary_SKOV3, −HGF): 5.02 µM
